Measurements as given in patent publication US10670605B2, “Cysteine reactive probes and uses thereof” (The Scripps Research Institute, priority 2015, dated 2020).
Counter-ions that a name gives are not always drawn.

Experiments:
Format in all cases: cell-based
[1] = biological target: RAI14 C973 (Q9P0K7) (Homo sapiens, UniProt Q9P0K7); assay: Competitive isoTOP-ABPP in situ; details: fragment 4 at 100 μM, MDA-MB-231 cells
[2] = biological target: Cys residues in primary human T cells (Homo sapiens, UniProt P46109); assay: isoTOP-ABPP of compound-treated primary human T cells; details: CRKL C249 (P46109)
[3] = biological target: T1, Cys residues in primary human T cells (Homo sapiens, UniProt P49588); assay: as above; details: AARS C773 (P49588)
T1 sequence (P49588 1-968): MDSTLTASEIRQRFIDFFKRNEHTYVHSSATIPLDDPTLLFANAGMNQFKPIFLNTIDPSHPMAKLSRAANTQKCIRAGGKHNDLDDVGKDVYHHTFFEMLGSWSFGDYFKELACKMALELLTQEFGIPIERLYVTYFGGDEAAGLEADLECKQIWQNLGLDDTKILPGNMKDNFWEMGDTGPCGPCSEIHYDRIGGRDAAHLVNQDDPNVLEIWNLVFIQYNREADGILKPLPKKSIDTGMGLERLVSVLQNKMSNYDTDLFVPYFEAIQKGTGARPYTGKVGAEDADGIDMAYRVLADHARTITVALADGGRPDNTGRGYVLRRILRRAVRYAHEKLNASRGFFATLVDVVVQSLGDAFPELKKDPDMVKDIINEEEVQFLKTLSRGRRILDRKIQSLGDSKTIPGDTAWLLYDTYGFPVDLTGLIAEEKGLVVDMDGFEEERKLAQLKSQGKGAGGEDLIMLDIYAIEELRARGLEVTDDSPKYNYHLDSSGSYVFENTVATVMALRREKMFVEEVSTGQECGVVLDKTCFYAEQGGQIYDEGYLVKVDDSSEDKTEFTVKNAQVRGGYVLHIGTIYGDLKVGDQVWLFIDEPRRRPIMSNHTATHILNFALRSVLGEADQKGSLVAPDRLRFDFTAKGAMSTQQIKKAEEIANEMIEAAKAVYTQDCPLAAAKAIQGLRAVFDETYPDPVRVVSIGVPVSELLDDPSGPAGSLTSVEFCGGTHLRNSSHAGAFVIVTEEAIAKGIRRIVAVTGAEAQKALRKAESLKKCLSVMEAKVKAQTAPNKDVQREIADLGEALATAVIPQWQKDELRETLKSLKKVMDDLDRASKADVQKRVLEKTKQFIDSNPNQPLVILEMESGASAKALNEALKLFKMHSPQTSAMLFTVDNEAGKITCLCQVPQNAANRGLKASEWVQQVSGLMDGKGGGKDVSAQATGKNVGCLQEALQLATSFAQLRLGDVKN

[4] = biological target: Cys residues in primary human T cells (Homo sapiens, UniProt Q8N2G8); assay: as above; details: GHDC C502 (Q8N2G8)
[5] = biological target: T2, PKCθ C14/C17 (Homo sapiens, UniProt Q04759); assay: as above; details: for R value (DMSO/DMF): PRKCQ C14 (Q04759)
T2 construct: endogenous in cells; host or cells: primary human T cells
Procedure: (§1) Cells were lysed by sonication and diluted to a concentration of 2 mg protein/mL. Protein concentrations were measured with the Bio-Rad DC™ protein assay reagents A and B (5000113, 5000114; Bio-Rad). 500 μL of proteome sample was treated with 100 μM of IA-alkyne probe using […] of a 10 mM DMSO stock. The labeling reactions were incubated at room temperature for 1 h upon which time the samples were conjugated to isotopically-labeled TEV-cleavable tags (TEV tags) by copper-catalyzed azide-alkyne cycloaddition (CuACC or ‘click chemistry’). 60 μL of heavy click chemistry reaction mixture was added to the DMSO-treated control sample and 60 μL of the light reaction mixture was added to the compound-treated sample. The click reaction mixture comprised TEV tags (10 μL of a 5 mM stock, light (fragment treated) or heavy (DMSO treated)), CuSO4 (10 μL of a 50 mM stock in water), and TBTA (30 μL of a 1.7 mM stock in 4:1 tBuOH:DMSO). To this was added TCEP (10 μL of a 50 mM stock). The reaction was performed for 1 h at room temperature.
(§2) The resulting pellets were resuspended in 500 μL of cold methanol by sonication and the heavy and light samples combined pairwise. Combined pellets were then washed with cold MeOH, after which the pellet was solubilized in PBS containing 1.2% SDS by sonication. The samples were heated at 90° C. for 5 min and subjected to streptavidin enrichment of probe-labeled proteins, sequential on-bead trypsin and TEV digestion, and liquid chromatography-tandem mass spectrometry (LC-MS/MS) according to the published isoTOP-ABPP protocols.
(§3) The quantification of heavy/light ratios (isoTOP-ABPP ratios, R values) was performed by in-house CIMAGE software using default parameters (3 MS1's per peak and signal to noise threshold of 2.5). Site-specific engagement of electrophilic compounds was assessed by blockade of IA-alkyne probe labeling. […] Overlapping peptides with the same labeled cysteine (for example, same local sequence around the labeled cysteines but different charge states, MudPIT segment numbers, or tryptic termini) were grouped together, and the median ratio from each group was recorded as the R value of the peptide for that run.

[6] = biological target: T3, PKCθ C322 (Homo sapiens, UniProt Q04759); assay: as above; details: 50 μM, 4 h
T3 construct: endogenous in cells; host or cells: primary human T cells
Procedure: as §1, §2, §3

[7] = biological target: T4, PRKDC C4045 (Homo sapiens, UniProt P78527); assay: as above; details: for R value (DMSO/DMF): PRKDC C4045 (P78527)
T4 construct: endogenous in cells; host or cells: primary human T cells
Procedure: as §1, §2, §3

T2 sequence (Q04759 whole entry): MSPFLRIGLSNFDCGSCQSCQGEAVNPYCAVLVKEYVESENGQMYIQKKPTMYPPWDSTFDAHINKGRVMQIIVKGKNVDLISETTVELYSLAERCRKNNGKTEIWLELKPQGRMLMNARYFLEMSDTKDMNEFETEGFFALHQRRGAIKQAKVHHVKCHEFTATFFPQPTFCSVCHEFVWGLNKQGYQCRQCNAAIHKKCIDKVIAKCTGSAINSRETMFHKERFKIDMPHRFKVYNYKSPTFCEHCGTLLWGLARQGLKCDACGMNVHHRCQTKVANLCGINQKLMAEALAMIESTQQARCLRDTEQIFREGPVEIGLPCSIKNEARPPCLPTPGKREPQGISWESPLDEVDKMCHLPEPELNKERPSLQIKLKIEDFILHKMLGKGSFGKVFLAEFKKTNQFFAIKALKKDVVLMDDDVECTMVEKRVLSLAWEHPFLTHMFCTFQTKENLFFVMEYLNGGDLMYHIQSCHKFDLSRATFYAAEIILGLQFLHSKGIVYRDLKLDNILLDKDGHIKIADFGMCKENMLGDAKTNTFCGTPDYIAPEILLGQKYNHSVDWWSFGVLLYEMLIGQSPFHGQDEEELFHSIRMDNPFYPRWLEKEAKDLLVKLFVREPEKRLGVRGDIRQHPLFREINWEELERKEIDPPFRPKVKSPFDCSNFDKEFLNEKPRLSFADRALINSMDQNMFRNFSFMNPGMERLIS
T4 sequence (P78527 whole entry): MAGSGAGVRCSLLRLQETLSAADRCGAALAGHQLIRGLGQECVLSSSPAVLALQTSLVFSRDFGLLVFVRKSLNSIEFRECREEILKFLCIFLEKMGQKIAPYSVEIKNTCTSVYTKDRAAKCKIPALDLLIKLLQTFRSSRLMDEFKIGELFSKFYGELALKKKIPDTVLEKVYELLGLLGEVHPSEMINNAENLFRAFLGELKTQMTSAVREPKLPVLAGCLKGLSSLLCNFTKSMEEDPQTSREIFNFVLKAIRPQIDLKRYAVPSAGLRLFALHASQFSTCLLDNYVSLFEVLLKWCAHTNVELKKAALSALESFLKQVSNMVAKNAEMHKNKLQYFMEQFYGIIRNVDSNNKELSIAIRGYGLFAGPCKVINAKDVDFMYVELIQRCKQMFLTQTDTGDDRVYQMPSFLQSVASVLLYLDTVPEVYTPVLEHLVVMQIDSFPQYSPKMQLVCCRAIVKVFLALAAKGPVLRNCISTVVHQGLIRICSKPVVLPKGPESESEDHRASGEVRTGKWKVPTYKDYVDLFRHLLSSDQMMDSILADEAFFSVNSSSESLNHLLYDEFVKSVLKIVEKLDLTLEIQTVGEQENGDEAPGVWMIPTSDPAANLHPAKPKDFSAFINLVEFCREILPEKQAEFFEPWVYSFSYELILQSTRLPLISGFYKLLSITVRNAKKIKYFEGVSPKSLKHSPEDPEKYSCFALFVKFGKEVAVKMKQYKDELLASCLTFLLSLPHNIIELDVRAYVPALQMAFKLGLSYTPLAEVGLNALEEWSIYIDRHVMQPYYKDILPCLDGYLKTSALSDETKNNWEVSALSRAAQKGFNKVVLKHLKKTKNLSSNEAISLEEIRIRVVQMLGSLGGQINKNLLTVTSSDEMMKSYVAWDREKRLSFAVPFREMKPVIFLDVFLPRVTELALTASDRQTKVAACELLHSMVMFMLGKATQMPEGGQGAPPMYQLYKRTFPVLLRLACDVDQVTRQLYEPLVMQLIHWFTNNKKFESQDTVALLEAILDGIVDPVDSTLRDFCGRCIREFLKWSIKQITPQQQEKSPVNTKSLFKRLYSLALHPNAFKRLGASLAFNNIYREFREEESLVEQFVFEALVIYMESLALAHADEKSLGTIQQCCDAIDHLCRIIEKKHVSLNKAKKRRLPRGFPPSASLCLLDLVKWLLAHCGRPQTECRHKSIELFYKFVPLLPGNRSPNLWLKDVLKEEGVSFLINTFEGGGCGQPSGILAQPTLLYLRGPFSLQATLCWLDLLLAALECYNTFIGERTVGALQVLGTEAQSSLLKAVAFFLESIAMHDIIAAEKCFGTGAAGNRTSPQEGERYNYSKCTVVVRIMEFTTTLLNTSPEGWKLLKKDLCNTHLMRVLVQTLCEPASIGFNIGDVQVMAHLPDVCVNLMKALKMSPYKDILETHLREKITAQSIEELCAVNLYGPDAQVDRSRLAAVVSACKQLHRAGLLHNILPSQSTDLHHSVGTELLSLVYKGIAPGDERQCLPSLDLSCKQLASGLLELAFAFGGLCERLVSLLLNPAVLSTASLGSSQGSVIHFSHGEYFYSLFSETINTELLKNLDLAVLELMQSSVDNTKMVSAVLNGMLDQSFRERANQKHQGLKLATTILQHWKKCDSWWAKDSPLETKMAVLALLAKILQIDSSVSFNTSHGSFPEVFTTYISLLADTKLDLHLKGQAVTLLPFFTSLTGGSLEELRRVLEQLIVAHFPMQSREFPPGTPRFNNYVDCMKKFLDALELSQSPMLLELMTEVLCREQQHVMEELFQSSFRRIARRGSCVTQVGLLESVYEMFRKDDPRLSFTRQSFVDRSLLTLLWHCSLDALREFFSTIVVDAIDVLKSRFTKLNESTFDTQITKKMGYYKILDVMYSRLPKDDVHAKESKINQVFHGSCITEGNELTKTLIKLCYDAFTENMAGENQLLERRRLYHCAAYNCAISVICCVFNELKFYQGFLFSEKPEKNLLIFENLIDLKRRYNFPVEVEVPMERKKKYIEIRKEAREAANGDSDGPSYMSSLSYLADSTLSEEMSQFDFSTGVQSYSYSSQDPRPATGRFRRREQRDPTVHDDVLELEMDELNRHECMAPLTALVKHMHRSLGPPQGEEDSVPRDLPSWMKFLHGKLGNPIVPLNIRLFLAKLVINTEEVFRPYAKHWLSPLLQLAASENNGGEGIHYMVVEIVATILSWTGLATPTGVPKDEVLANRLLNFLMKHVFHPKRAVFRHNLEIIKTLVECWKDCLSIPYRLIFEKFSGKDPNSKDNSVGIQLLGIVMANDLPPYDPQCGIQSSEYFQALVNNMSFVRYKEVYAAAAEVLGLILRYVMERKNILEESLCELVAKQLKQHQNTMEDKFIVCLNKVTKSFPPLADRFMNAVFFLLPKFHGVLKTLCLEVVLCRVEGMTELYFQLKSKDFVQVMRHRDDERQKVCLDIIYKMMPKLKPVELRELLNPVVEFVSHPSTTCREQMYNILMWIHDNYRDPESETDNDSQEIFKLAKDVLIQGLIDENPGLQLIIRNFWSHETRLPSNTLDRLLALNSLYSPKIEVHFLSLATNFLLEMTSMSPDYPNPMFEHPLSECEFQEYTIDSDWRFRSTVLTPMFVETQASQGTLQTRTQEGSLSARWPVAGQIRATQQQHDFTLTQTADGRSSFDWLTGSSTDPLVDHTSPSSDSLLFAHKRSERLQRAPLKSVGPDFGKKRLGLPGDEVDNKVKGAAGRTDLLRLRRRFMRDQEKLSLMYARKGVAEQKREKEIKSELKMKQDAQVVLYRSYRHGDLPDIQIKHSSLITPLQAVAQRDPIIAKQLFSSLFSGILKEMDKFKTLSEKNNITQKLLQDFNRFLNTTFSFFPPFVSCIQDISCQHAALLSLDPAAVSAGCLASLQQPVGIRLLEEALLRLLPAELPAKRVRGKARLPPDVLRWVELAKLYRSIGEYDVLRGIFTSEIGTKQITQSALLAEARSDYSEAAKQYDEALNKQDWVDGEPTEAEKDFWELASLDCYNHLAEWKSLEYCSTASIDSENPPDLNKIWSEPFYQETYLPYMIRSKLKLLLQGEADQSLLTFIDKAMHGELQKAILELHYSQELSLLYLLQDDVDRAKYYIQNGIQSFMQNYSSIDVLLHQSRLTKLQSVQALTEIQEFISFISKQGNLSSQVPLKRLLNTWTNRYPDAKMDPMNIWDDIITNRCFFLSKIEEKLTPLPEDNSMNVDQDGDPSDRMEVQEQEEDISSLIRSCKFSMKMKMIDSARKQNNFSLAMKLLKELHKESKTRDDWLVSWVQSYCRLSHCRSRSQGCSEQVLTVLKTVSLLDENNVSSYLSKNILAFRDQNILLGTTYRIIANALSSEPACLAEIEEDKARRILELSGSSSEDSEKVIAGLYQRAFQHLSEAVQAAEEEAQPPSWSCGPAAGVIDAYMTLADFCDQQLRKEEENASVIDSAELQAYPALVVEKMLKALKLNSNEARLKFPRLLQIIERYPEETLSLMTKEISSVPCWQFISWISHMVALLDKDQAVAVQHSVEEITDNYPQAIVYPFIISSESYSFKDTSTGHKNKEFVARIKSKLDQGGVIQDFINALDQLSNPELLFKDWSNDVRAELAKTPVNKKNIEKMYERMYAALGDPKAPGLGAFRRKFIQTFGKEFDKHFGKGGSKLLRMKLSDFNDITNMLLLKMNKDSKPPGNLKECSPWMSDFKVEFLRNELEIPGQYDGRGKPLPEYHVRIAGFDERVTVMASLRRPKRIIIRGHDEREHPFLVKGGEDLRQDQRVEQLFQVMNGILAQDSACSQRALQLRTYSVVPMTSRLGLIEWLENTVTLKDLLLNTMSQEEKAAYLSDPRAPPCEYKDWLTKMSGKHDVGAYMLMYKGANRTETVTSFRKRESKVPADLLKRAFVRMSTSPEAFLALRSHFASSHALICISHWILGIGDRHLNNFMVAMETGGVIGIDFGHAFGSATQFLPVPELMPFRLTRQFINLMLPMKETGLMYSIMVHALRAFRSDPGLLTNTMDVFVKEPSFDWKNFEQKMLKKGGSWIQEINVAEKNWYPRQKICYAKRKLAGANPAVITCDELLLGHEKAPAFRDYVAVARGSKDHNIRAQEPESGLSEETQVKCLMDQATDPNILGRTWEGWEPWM
Sequence of Cys residues in primary human T cells (Homo sapiens, UniProt P46109) (P46109 whole entry): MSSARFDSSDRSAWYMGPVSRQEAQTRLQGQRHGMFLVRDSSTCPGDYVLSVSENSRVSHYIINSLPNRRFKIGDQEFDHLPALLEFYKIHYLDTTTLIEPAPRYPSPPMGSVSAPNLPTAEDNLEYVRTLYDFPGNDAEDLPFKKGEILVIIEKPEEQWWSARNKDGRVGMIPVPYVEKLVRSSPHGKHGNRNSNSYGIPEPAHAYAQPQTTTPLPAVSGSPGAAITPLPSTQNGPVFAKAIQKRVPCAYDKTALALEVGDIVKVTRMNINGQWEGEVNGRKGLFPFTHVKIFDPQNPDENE

SMILES | isoTOP-ABPP reactivity profile (ratio) 4_100 μM_in-situ_231 [1] | R value (DMSO/DMF) ([2]; DMF 10 μM 4h) | R value (DMSO/DMF) ([2]; DMF 50 μM 1h) | R value (DMSO/DMF) ([2]; DMF 50 μM 2h) | R value (DMSO/DMF) ([2]; DMF 50 μM 4h) | R value (DMSO/DMF) ([3]; DMF 10 μM 4h) | R value (DMSO/DMF) ([3]; DMF 50 μM 1h) | R value (DMSO/DMF) ([3]; DMF 50 μM 2h) | R value (DMSO/DMF) ([3]; DMF 50 μM 4h) | R value (DMSO/DMF) ([4]; DMF 50 μM 1h) | R value (DMSO/DMF) ([4]; DMF 50 μM 2h) | IA-alkyne reactivity of PKCθ C14 and C17 ([5]; 50 μM, 4 h) | R value (DMSO/DMF) ([5]; DMF 10 μM 4h) | R value (DMSO/DMF) ([5]; DMF 25 μM 4h) | R value (DMSO/DMF) ([5]; DMF 50 μM 2h) | R value (DMSO/DMF) ([5]; DMF 50 μM 4h) | IA-alkyne reactivity of PKCθ C322 [6] | IA-alkyne reactivity of PRKDC C4045 ([7]; 50 μM, 4 h) | R value (DMSO/DMF) ([7]; DMF 50 μM 1h) | R value (DMSO/DMF) ([7]; DMF 50 μM 2h)
COc1ccc(C2CC(c3cccs3)=NN2C(=O)CCl)cc1 (centres unmarked) [compound 4] | 8.7 |  |  |  |  |  |  |  |  |  |  |  |  |  |  |  |  |  |  | 
COC(=O)/C=C/C(=O)OC [DMF, dimethyl fumarate] |  | 1.38 | 2.21 | 3.21 | 4.86 | 2.84 | 9.34 | 10.16 | 12.75 | 4.23 | 20 | blocked | 1.62 | 3.29 | 2.92 | 4.21 | unaffected | blocked | 4.14 | 10.53
